The experiment has as its system BDF1 mice, P388 leukemia ip, median survival T/C. As to the kind of experiment: NCI In Vivo Anticancer Drug Screen. Data for tumor model P388 Leukemia (intraperitoneal) in B6D2F1 (BDF1) mice. The note with it: endpoint: median survival time, higher = longer survival. A digest of the protocol:
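Antitumour effect was judged in vivo: survival in drug-treated mice, normalised to that of vehicle-dosed controls, gives the reported T/C.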

[1] abbreviates: dose: 100.0 mg/kg/injection, schedule: Q01DX009 (ip), vehicle: saline with Tween-80.
Where [2] appears, read: dose: 200.0 mg/kg/injection, schedule: Q01DX009 (ip), vehicle: saline with Tween-80.
Where [3] appears, read: dose: 400.0 mg/kg/injection, schedule: Q01DX009 (ip), vehicle: saline with Tween-80.
The mark [4] stands for this setting: dose: 12.5 mg/kg/injection, schedule: Q01DX009 (ip), vehicle: saline with Tween-80.
Setting [5] is: dose: 25.0 mg/kg/injection, schedule: Q04DX003 (ip), vehicle: saline with Tween-80.
Setting [6] is: dose: 50.0 mg/kg/injection, schedule: Q01DX009 (ip), vehicle: saline with Tween-80.
Setting [7] is: dose: 100.0 mg/kg/injection, schedule: Q04DX003 (ip), vehicle: saline with Tween-80.
Where [8] appears, read: dose: 200.0 mg/kg/injection, schedule: Q04DX003 (ip), vehicle: saline with Tween-80.
The mark [9] stands for this setting: dose: 400.0 mg/kg/injection, schedule: Q04DX003 (ip), vehicle: saline with Tween-80.
[10] abbreviates: dose: 3.13 mg/kg/injection, schedule: Q01DX009 (ip), vehicle: saline with Tween-80.
[11] abbreviates: dose: 6.25 mg/kg/injection, schedule: Q01DX009 (ip), vehicle: saline with Tween-80.
[12] abbreviates: dose: 12.5 mg/kg/injection, schedule: Q01DX009 (ip), vehicle: saline.

Where “and” joins values, the source holds several entries; their conditions need not be identical. Equal entries are not always repeated. Toxic doses and inconclusive results are not listed.

Regarding `NC(=O)CC(NC(=O)OCc1ccccc1)c1nn[nH]n1` (stereo not given), the T/C is 90 % of control under setting [1], 100 % of control under setting [2] and 95 % of control under setting [3].
`O=[N+]([O-])c1ccc(N2CC2)c2c1no[n+]2[O-]`: under “dose: 15.0 mg/kg/injection, schedule: Q04DX003 (ip), vehicle: saline with Tween-80”, the T/C was 109 % of control.
`Cc1ccc(S)cc1`: the T/C is 104 % of control under setting [4]; 95 % of control (dose: 25.0 mg/kg/injection, schedule: Q01DX009 (ip), vehicle: saline with Tween-80); 100 % of control under setting [5]; 108 % of control under setting [6]; 91 % of control (dose: 50.0 mg/kg/injection, schedule: Q04DX003 (ip), vehicle: saline with Tween-80).
In the case of `COCCCNP(=S)(N1CC1)N1CC1`, the T/C is 163 % of control and 195 % of control (dose: 16.5 mg/kg/injection, schedule: Q04DX003 (ip), vehicle: saline with Tween-80); 181 % of control and 218 % of control under setting [5]; 104 % of control and 109 % of control (dose: 37.5 mg/kg/injection, schedule: Q04DX003 (ip), vehicle: saline with Tween-80).
In the case of `O=C(Nc1ccc(Cl)c(Cl)c1)O/N=C/c1ccccn1`, the T/C by setting is: under setting [7], 100 % of control; under setting [8], 90 % of control; under setting [9], 95 % of control.
On to `COC(=O)Cc1c[nH]c(=O)[nH]c1=O`, for which the T/C by setting is: (dose: 50.0 mg/kg/injection, schedule: Q01DX009 (ip), vehicle: water) 117 % of control; (dose: 100.0 mg/kg/injection, schedule: Q01DX009 (ip), vehicle: water) 102 % of control; (dose: 100.0 mg/kg/injection, schedule: Q04DX003 (ip), vehicle: water) 99 % of control; (dose: 200.0 mg/kg/injection, schedule: Q01DX009 (ip), vehicle: water) 96 % of control; (dose: 200.0 mg/kg/injection, schedule: Q04DX003 (ip), vehicle: water) 94 % of control.
Regarding `Nc1nc2c(c(=O)[nH]1)N(CCS(=O)(=O)F)C(CNc1ccc(C(=O)NC(CCC(=O)O)C(=O)O)cc1)CN2` (stereo not given), the T/C (dose: 50.0 mg/kg/injection, schedule: Q04DX003 (ip), vehicle: sodium bicarbonate) was 105 % of control; the T/C (dose: 100.0 mg/kg/injection, schedule: Q04DX003 (ip), vehicle: sodium bicarbonate) was 99 % of control; the T/C (dose: 200.0 mg/kg/injection, schedule: Q04DX003 (ip), vehicle: sodium bicarbonate) is 99 % of control.
Consider `c1ccc(C[n+]2ccc(-c3cc[n+](Cc4ccccc4)cc3)cc2)cc1`, for which the T/C by setting is: (dose: 1.25 mg/kg/injection, schedule: Q01DX010 (ip), vehicle: saline) 86 % of control; (dose: 156.0 micrograms/kg/injection, schedule: Q01DX010 (ip), vehicle: saline) 104 % of control; (dose: 313.0 micrograms/kg/injection, schedule: Q01DX010 (ip), vehicle: saline) 104 % of control; (dose: 625.0 micrograms/kg/injection, schedule: Q01DX010 (ip), vehicle: saline) 104 % of control.
As to `CC1CCCCC1O` (stereo not given), the T/C runs as follows: under setting [6], 100 % of control and 109 % of control; under setting [1], 93 % of control and 109 % of control; under setting [2], 111 % of control and 95 % of control.
With `CCCCC[C@H](O)/C=C/[C@H]1[C@H](O)CC(=O)[C@@H]1C/C=C\CCCC(=O)O`, the T/C (dose: 50.0 mg/kg/injection, schedule: Q04DX002 (ip), vehicle: Klucel (hydroxypropylcellulose) (HPC)) was 122 % of control; the T/C (dose: 100.0 mg/kg/injection, schedule: Q04DX002 (ip), vehicle: Klucel (hydroxypropylcellulose) (HPC)) is 105 % of control; the T/C (dose: 200.0 mg/kg/injection, schedule: Q04DX002 (ip), vehicle: Klucel (hydroxypropylcellulose) (HPC)) is 114 % of control; the T/C (dose: 400.0 mg/kg/injection, schedule: Q04DX002 (ip), vehicle: Klucel (hydroxypropylcellulose) (HPC)) is 114 % of control.
For the compound `Clc1ccc(/C=N\N=C\c2ccc(Cl)c(Cl)c2)cc1Cl`, the T/C is 105 % of control under setting [7], 111 % of control under setting [8] and 111 % of control under setting [9].
As to `COC(=O)C(Cc1c[nH]c2ccccc12)NC(=O)C(Cc1c[nH]c2ccccc12)NC(=O)OC(C)(C)C` (stereo not given), the T/C is 90 % of control (dose: 100.0 mg/kg/injection, schedule: Q01DX001 (ip), vehicle: saline with Tween-80); 86 % of control (dose: 200.0 mg/kg/injection, schedule: Q01DX001 (ip), vehicle: saline with Tween-80); 90 % of control (dose: 400.0 mg/kg/injection, schedule: Q01DX001 (ip), vehicle: saline with Tween-80).
As for `CO[C@@H]1[C@H](O)CC[C@]2(CO2)[C@H]1[C@@]1(C)O[C@@H]1CC=C(C)C`, the T/C is 100 % of control under setting [10]; 97 % of control under setting [11]; 106 % of control under setting [4]; 98 % of control under setting [12]; 100 % of control (dose: 37.5 mg/kg/injection, schedule: Q01DX009 (ip), vehicle: saline with Tween-80).
On to `Nc1nc(N=Nc2ccc(O)cc2)cc(=O)[nH]1`, for which the T/C (dose: 50.0 mg/kg/injection, schedule: Q01DX009 (ip), vehicle: other) was 106 % of control; the T/C (dose: 100.0 mg/kg/injection, schedule: Q01DX009 (ip), vehicle: other) is 110 % of control; the T/C (dose: 200.0 mg/kg/injection, schedule: Q01DX009 (ip), vehicle: other) was 103 % of control; the T/C (dose: 400.0 mg/kg/injection, schedule: Q01DX009 (ip), vehicle: other) was 112 % of control.
For the compound `CCCSc1ncnc2nc[nH]c12`, the T/C is 95 % of control and 120 % of control (dose: 31.3 mg/kg/injection, schedule: Q01DX010 (ip), vehicle: saline); 100 % of control and 105 % of control (dose: 62.5 mg/kg/injection, schedule: Q01DX010 (ip), vehicle: saline); 95 % of control and 100 % of control (dose: 125.0 mg/kg/injection, schedule: Q01DX010 (ip), vehicle: saline).
With `CC1(C)c2ccccc2C(C)(O)c2ccccc21`, the T/C was 100 % of control under setting [1]; 100 % of control under setting [7]; 100 % of control under setting [2]; 96 % of control under setting [8]; 112 % of control under setting [3]; 96 % of control under setting [9].
For `O=C(O)COCc1ccccc1`, the T/C by setting is: (dose: 100.0 mg/kg/injection, schedule: Q01DX001 (ip), vehicle: saline sonified) 100 % of control; (dose: 200.0 mg/kg/injection, schedule: Q01DX001 (ip), vehicle: saline sonified) 104 % of control; (dose: 400.0 mg/kg/injection, schedule: Q01DX001 (ip), vehicle: saline sonified) 117 % of control.
Regarding `COc1ccc(NCNc2ccc(OC)cc2)cc1`, the T/C was 110 % of control (dose: 25.0 mg/kg/injection, schedule: Q04DX003 (ip), vehicle: Klucel (hydroxypropylcellulose) (HPC)); 105 % of control (dose: 50.0 mg/kg/injection, schedule: Q04DX003 (ip), vehicle: Klucel (hydroxypropylcellulose) (HPC)); 110 % of control (dose: 100.0 mg/kg/injection, schedule: Q04DX003 (ip), vehicle: Klucel (hydroxypropylcellulose) (HPC)).
Regarding `CC(N)COCc1ccccc1` (stereo not given), the T/C runs as follows: (dose: 25.0 mg/kg/injection, schedule: Q04DX003 (ip), vehicle: saline) 104 % of control; (dose: 50.0 mg/kg/injection, schedule: Q04DX003 (ip), vehicle: saline) 95 % of control.
Consider `COc1ccc2c(c1)CCC1C2CCC2(C)/C(=N/O)C3OC3C12` (stereo not given), for which the T/C was 121 % of control under setting [6], 111 % of control under setting [1] and 111 % of control under setting [2].
With `O=S(=O)(F)c1ccc2nc(-c3cccc(Sc4ccccc4)c3)cc(Cl)c2c1`, the T/C is, setting by setting: under setting [7], 90 % of control; under setting [8], 100 % of control; under setting [9], 100 % of control.
Take `c1ccc(C(c2ccccc2)[n+]2ccccc2)cc1`: the T/C runs as follows: (dose: 3.13 mg/kg/injection, schedule: Q01DX009 (ip), vehicle: saline) 91 % of control; under setting [12], 114 % of control.
`O=C1C=CC(=O)c2c(O)cccc21`: the T/C was 90 % of control (dose: 1.56 mg/kg/injection, schedule: Q01DX009 (ip), vehicle: saline with Tween-80); 95 % of control under setting [10]; 95 % of control under setting [11].
For the compound `COc1ccc(C(N)C(=O)O)cc1` (stereo not given), the T/C was 100 % of control (dose: 100.0 mg/kg/injection, schedule: Q01DX001 (ip), vehicle: Klucel (hydroxypropylcellulose) (HPC)); 109 % of control (dose: 200.0 mg/kg/injection, schedule: Q01DX001 (ip), vehicle: Klucel (hydroxypropylcellulose) (HPC)); 109 % of control (dose: 400.0 mg/kg/injection, schedule: Q01DX001 (ip), vehicle: Klucel (hydroxypropylcellulose) (HPC)).
